Results reported in patent US11542283B2, “Synthesis of peptide borate ester compound and use thereof” (JIANGSU CHIA TAI FENGHAI PHARMACEUTICAL CO., LTD., priority 2018, dated 2023).
Where two headings read alike, the source gives them in different places.

Columns and labels:
[1] = target: human erythrocyte 20S proteasome (Homo sapiens (Human), UniProt P28074); assay: Assay of inhibition on proteasome activity (chymotrypsin-like, Suc-LLVY-AMC substrate); type: biochemical
Source text: The proteasome used in the present invention is human erythrocyte 20S proteasome, and the enzyme, fluorescent substrate and test buffer are all purchased from Enzo.

[2] = system: ARH-77 xenograft tumors; assay: Evaluation in animal model of xenotransplantation (ARH-77 xenograft); type: in vivo, Balb/c nude mice; details: oral; for RTV Mean / T/C / TGI (tumor inhibition rate) / TV Mean: three weeks
Method: The human multiple myeloma cell line ARH-77 was used to implant tumors under the skin of Balb/enude mice to establish a transplanted tumor model. The specific experimental process is as follows.
1. 4-6 week-old Balb/c nude mice purchased from Shanghai Bikai Laboratory Animal Co., Ltd., were transferred to a barrier system to adapt to the environment for one week.
2. The cells were cultured to the logarithmic growth phase, digested, centrifuged, re-suspended in Matrigel at a density of 1×10^7 cells/ml, and placed on ice for later use. In the barrier system, the tumor cells were inoculated into the axilla of the animal's right forelimb in an amount of 1×10^6 cells per animal, and the inoculation volume for each animal was 100 microliters.
3. The animals were grown and the tumor volume was measured by a vernier caliper. When the average volume was increased to 100-150 mm^3, the animals were randomly divided into three groups including a blank control group, a positive drug group (Compound MLN-9708) and an experimental group […]), each group having 6 animals.
The formula for calculating tumor volume is: Volume(mm3)=0.5×(Length(mm)×Width(mm)2)
4. The compound used was formulated with a 5% R-sulfobutyl cyclodextrin sodium aqueous solution to give an appropriate concentration, ultrasonicated until the solution became clear, and then stored in a refrigerator at 4° C. for later use.
5. The mice were orally administered. The frequency of administration for the positive drug group was twice a week, and the dosage was 5 mg/kg. The mice in the experimental group were administered daily, and the dosage was 1 mg/kg. The administration was continuous for three weeks, and then the mice were sacrificed to end the experiment. During this process, the tumor volume was measured and recorded twice a week. The inhibitory effect of agents on tumor growth was calculated by the GraphPad Prism software.

[3] = target: proteasome activity in blood cells (Mus musculus (Mouse), UniProt O55234); assay: In-vivo pharmacodynamics: proteasome activity in blood cells; details: ICR mice, oral single dose 2 mg/kg
proteasome activity in blood cells, sequence (O55234 60-264): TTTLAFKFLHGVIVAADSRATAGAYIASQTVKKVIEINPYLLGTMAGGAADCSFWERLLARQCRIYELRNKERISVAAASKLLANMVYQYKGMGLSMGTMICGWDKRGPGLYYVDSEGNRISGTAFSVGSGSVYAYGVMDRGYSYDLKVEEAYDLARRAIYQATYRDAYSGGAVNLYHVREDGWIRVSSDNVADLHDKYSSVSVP
Method: The compound designed in the present invention can be used to treat malignant tumors of the blood system, so the efficacy of the compound was evaluated by detecting the activity of the proteasome in the blood after single administration, and the in-vivo pharmacodynamic study can be carried out by blood sampling at different time points.
1. 8 week-old ICR mice purchased from Shanghai Bikai Laboratory Animal Co., Ltd., were transferred to a barrier system to adapt to the environment for one week.
2. The animals were divided into three groups, including a positive control group (MLN9708) and two experimental groups (IV-9, V-9A), each group having 3 animals.
3. Before administration, 100 μL of blood was sampled from each animal from the orbital venus plexus and used as the blank control, and the proteasome activity measured in blood cells in this sample was taken as 100%. 1 and 24 hrs after administration, blood was sampled from the orbital venus plexus, and the proteasome activity in blood cells was detected. The inhibitory effect of the drug on proteasome activity and recovery of proteasome activity in blood was obtained by comparison with the data at time 0.
4. […]
5. […] A cell lysing solution was added for protein quantification to correct the detected value. […] The dilution was further reacted with the fluorescent peptide substrate to detect the proteasome activity on a microplate reader.

[4] = In-vivo pharmacokinetic evaluation in SD rats; details: male SD rats; for AUC(0-t) / MRT last / half-life / bioavailability: rat, plasma; for AUC(0-t) / MRT last / half-life / CL_obs / Vz_obs: 2.0 mg/kg; for bioavailability: oral, p.o. 2.0 mg/kg vs i.v. 2.0 mg/kg, read-out: F (oral bioavailability); for CL_obs / Vz_obs: i.v.
Method: Twelve male SD rats weighing 220±20g, were randomly divided into four groups.
Two groups were respectively given IV-9 and V-9A by tail vein injection at doses given in a table below, and before and 10 min, 20 min. 30 min, 1 h, 2 h, 4 h, 8 h, 12 h, 24 h and 36 h after administration, about 0.200 mL of blood was collected from the jugular vein, placed in a test tube containing EDTA-K2, and centrifuged at a high speed (7800×g) for 15 min. The plasma was separated, and stored at −15° C. to −35° C. The pharmacokinetic differences of IV-9 and V-9A administered by intravenous injection were compared.
The other two groups were respectively given IV-9 and V-9A by oral gavage at doses given in a table below, and before and 5 min, 10 min, 20 min, 30 min, 1 h, 2 h, 4 h, 8 h, 12 h, 24 h and 36 h after administration, about 0.200 mL of blood was collected from the jugular vein, placed in a test tube containing EDTA-K2, and centrifuged at a high speed (7800×g) for 15 min. The plasma was separated, and stored at −15° C. to −35° C. The pharmacokinetic differences of IV-9 and V-9A administered by oral gavage were compared.

CSC[C@H](NC(=O)c1cc(Cl)ccc1Cl)C(=O)N[C@@H](CC(C)C)B1OCCNCCO1 [Compound V-9A, (R)-diethanolamine N-(2,5-dichlorobenzoyl)-3-methylmercaptopropionamido-D-leucine borate]
IC50 [1]: 5.69 nM | TW Mean (Day 21) ([2]; 1 mg/kg daily): 0.65 g | RTV Mean ([2]; 1 mg/kg daily): 3.72 | T/C ([2]; 1 mg/kg daily): 24.02% | TGI (tumor inhibition rate) ([2]; 1 mg/kg daily): 63.48% | TV Mean ([2]; 1 mg/kg daily): 354.78 mm^3 | inhibitory activity on proteasome in blood cells ([3]; 1 hr after administration, compared with MLN9708 5 mg/kg): even better inhibitory activity | proteasome activity in blood cells recovered, of the activity in the control group ([3]; 24 hrs after administration): 40% | AUC(0-t) ([4]; Sprague-Dawley (SD), iv): 2550 ng·h/mL | MRT last ([4]; Sprague-Dawley (SD), iv): 2.18 h | half-life ([4]; Sprague-Dawley (SD), iv): 3.1 h | bioavailability ([4]; Sprague-Dawley (SD)): 24.9% | AUC(0-t) ([4]; Sprague-Dawley (SD), po): 634 ng·h/mL | MRT last ([4]; Sprague-Dawley (SD), po): 3.37 h | half-life ([4]; Sprague-Dawley (SD), po): 2.88 h | CL_obs [4]: 11.2 mL/min/kg | Vz_obs [4]: 3.01 L/kg

CC(C)C[C@H](NC(=O)CNC(=O)c1cc(Cl)ccc1Cl)B1OC(=O)CC(CC(=O)O)(C(=O)O)O1 (stereo partly drawn) [MLN9708, reference compound]
TW Mean (Day 21) ([2]; 5 mg/kg twice a week): 1.33 g | RTV Mean ([2]; 5 mg/kg twice a week): 9.13 | T/C ([2]; 5 mg/kg twice a week): 58.94% | TGI (tumor inhibition rate) ([2]; 5 mg/kg twice a week): 25.28% | TV Mean ([2]; 5 mg/kg twice a week): 1042.71 mm^3 | TGI (tumor inhibition rate) ([2]; 5 mg/kg twice a week, listed as MLN-9708): 25.28%

CSC[C@H](NC(=O)c1cc(Cl)ccc1Cl)C(=O)N[C@@H](CC(C)C)B(O)O [IV-9]
CL_obs [4]: 16.4 mL/min/kg | Vz_obs [4]: 2.914 L/kg | AUC(0-t) ([4]; iv): 1890 ng·h/mL | MRT last ([4]; iv): 1.55 h | half-life ([4]; iv): 2.08 h | bioavailability [4]: 11% | AUC(0-t) ([4]; po): 208 ng·h/mL | MRT last ([4]; po): 2.35 h | half-life ([4]; po): 2.14 h

CSC[C@H](NC(=O)c1cc(Cl)ccc1Cl)C(=O)N[C@@H](CC(C)C)B1OC(=O)CC(CC(=O)O)(C(=O)O)O1 (stereo partly drawn) [Compound V-9B, (R)-N-(2,5-dichlorobenzoyl)-3-methylmercaptopropionamido-D-leucine borate citratte]
IC50 [1]: 6.6 nM
